Results as given in patent US12035716B2, “Treatment for seeds disinfection” (VILMORIN & CIE, priority 2013, dated 2024).
Like-named read-outs stand apart in the source and are kept apart here.

What was measured:
[1] = test system: cucumber seeds
Procedure: CGMMV was tested by ELISA assay according to method 7-026 of the international rules for seed testing annex to chapter 7: seed health testing methods; International Seed Testing Association, Zurich, Switzerland, 2010. The germination test was performed on petri dishes (TOP) at 24 C incubator and root protrusion was counted at 4 days after seeding (TOP at 4 d).

[2] = test system: melon seeds; details: vacuum infiltration 0.5%
[3] = test system: cucumber seeds; details: 1.33% solution, VI disinfection, untreated 97
Procedure: The germination test was performed on petri dishes (TOP) at 24 C incubator and root protrusion was counted at 4 days after seeding (TOP at 4 d).

[4] = test system: Acidovorax citrulli; details: for BFB by PCR method: melon, 1.0% solution, 30 vacuum cycles, sinking fraction, 5000 seeds
Procedure: The process: 10 kg of seed are added to 45 liters of 1% or 2% Na-Dichloroisocyanurate. The seeds are mixed in the solution for 30 minutes and then washed in running water for 10 minutes and then dried to the original water content.
Three batches of 1 kilograms of this seed lot were put in a 10 liter glass vessel together with 3.0 liters of disinfecting solution comprising of Na-Dichloroisocyanurate at 1.0%. Thirty cycles of vacuum/de-vacuum (each cycle having a duration of 1 to 1.5 minutes) were applied with three different level: (i) level A: full vacuum up to 975-985, (ii) level B: medium level of 740-816 mbar, and (iii) level C: low level of 576-667 mbar. After 40 minutes (i.e. after achieving the 30 cycles of vacuum/de-vacuum) the floating fractions were discarded and the sinking fractions were collected, washed for 40 minutes and dried.
The standard protocol can be obtained from the National Seed Health System, a program authorized by USDA-APHIS and administered by the Iowa State University Seed Science Center to accredit both private and public entities to perform certain activities needed to support the issuance of Federal phytosanitary certificates for the international movement of seed. See page 69 of the May 2014 edition of the “Vegetable Crop Method-Reference Manual B” National Seed Health System available at http://www.seedhealth.org/files/pdfVegetable_Crops.pdf.

[5] = test system: CGMMV; details: watermelon seeds; vacuum infiltration 0.2% solution, 40 minutes, sinking fraction; 2000 seeds
[6] = test system: CGMMV
Procedure: In this case, cucumber seeds have been obtained from a commercial seed lot, naturally infected by CGMMV in the production field.
The seeds were disinfected by standard method and by vacuum infiltration method. In this case, vacuum is applied at maximal pressure of 975-985 mbar from the beginning. […] The vacuum cycles continue until floating seeds are no longer sinking. The floating seeds are then removed and discarded. This process takes 15-20 minutes.
In this case two chemicals were used.
We also tested the effect of different concentration of Na-Dichloroisocyanurate applied by vacuum infiltration on CGMMV and germination (table II) treatment E is untreated control; treatment F is vacuum infiltration of Na-Dichloroisocyanurate 0.75%; treatment G is vacuum infiltration of Na-Dichloroisocyanurate 1.5% and treatment H is vacuum infiltration of Na-Dich loroisocyanurate 2.0%.
CGMMV was tested by ELISA assay according to method 7-026 of the international rules for seed testing annex to chapter 7: seed health testing methods; International Seed Testing Association, Zurich, Switzerland, 2010.

[7] = test system: Acidovorax citrulli; details: watermelon seeds
From the text: (§1) The vacuum cycles continue until floating seeds are no longer sinking. The floating seeds are then removed and discarded.

[8] = test system: cucumber seeds; remark: listed apart in the source
Procedure: The germination test was performed according to Annex to chapter 5, International Rules for Seed Testing, International Seed Testing Association, Zurich, Switzerland, 1996.

[9] = test system: CGMMV; details: 1.33% solution, VI disinfection; for Seed health lab results, ELISA average count: cut-off 0.130, untreated 0.841
Procedure: In this case, a commercial cucumber seed lot (2 kg) naturally infected by CGMMV was treated. The infected seeds were put into a reactor containing 20 liters of Na-Dichloroisocyanurate at 1.33%. The vacuum/de-vacuum cycles (i.e. vacuum infiltration) were applied gradually starting at 500 mbar and increased by 50 mbar each cycle up to the maximum of 985 mbar. Then we continued vacuum/de-vacuum cycles at maximum vacuum pressure of 985 mbar for a total of 30 cycles. […] Both fractions were separately collected. This process took 45 minutes. CGMMV was tested by ELISA assay according to method 7-026 of the international rules for seed testing annex to chapter 7: seed health testing methods; International Seed Testing Association, Zurich, Switzerland, 2010.

[10] = test system: Acidovorax citrulli; details: melon seeds
From the text: as §1
The standard protocol can be obtained from the National Seed Health System, a program authorized by USDA-APHIS and administered by the Iowa State University Seed Science Center to accredit both private and public entities to perform certain activities needed to support the issuance of Federal phytosanitary certificates for the international movement of seed.

Question: `O=c1nc([O-])n(Cl)c(=O)n1Cl.[Na+]` [Na-Dichloroisocyanurate] was tested. Which “% Germination TOP at 4 d” value ([1]; seed lot A, VI disinfection 1.5%, heavy fraction) did it give?
Answer: The value was 100%.

Question: What about the “% Germination TOP at 4 d” value ([1]; seed lot A, standard disinfection 2.5%) of the same compound?
Answer: Its value is 100%.

Question: What about the “% Germination TOP at 4 d” value ([1]; seed lot B, VI disinfection 1.5%, heavy fraction) of the same compound?
Answer: The value was 100%.

Question: What about the “% Germination TOP at 4 d” value ([1]; seed lot B, standard disinfection 2.5%) of the same compound?
Answer: Its value is 100%.

Question: And the Germination ([2]; floating fraction, counted at 4 days)?
Answer: The Germination was 96%.

Question: What about the Germination ([2]; floating fraction, counted at 7 days) of the same compound?
Answer: The Germination was 92%.

Question: And the Germination ([2]; heavy fraction, counted at 4 days)?
Answer: Its Germination is 99%.

Question: What about the Germination ([2]; heavy fraction, counted at 7 days) of the same compound?
Answer: The Germination was 99%.

Question: And the “% Germination TOP at 4 d” value ([3]; floating fraction (5%))?
Answer: Its value is 62%.

Question: What about the “% Germination TOP at 4 d” value ([3]; sinking fraction (95%)) of the same compound?
Answer: The value was 94%.

Question: And the “BFB infection after standard disinfection” value (“BFB infection” for short) ([4]; melon seeds, disinfected twice by standard protocol of example 5 (1% or 2%, 30 minutes))?
Answer: Its value is “still found to be BFB infected”.

Question: And the “BFB by PCR method” value ([4]; level A full vacuum up to 975-985)?
Answer: The value was “negative”.

Question: What about the “BFB by PCR method” value ([4]; level B 740-816 mbar) of the same compound?
Answer: The value was “negative”.

Question: What about the “BFB by PCR method” value ([4]; level C 576-667 mbar) of the same compound?
Answer: Its value is “negative”.

Question: And the “CGMMV by ELISA assay” value [5]?
Answer: Its value is “negative”.

Question: What about the “ELISA assay result (rate of extinction at A405)” value (from here on “ELISA assay result”) ([6]; Na-Dichloroisocyanurate 0.4%, standard disinfection, negative control 0.13) of the same compound?
Answer: Its value is 0.45.

Question: What about the “ELISA assay result” value ([6]; Na-Dichloroisocyanurate 0.4%, vacuum infiltration, negative control 0.13) of the same compound?
Answer: The value was 0.25.

Question: And the “ELISA assay result” value ([6]; Na-Dichloroisocyanurate 0.75%, vacuum infiltration, untreated control 0.72, negative control 0.13)?
Answer: Its value is 0.17.

Question: And the “ELISA assay result” value ([6]; Na-Dichloroisocyanurate 1.5%, vacuum infiltration, untreated control 0.72, negative control 0.13)?
Answer: Its value is 0.13.

Question: And the “ELISA assay result” value ([6]; Na-Dichloroisocyanurate 2.0%, vacuum infiltration, untreated control 0.72, negative control 0.13)?
Answer: The value was 0.16.

Question: What about the “BFB infection” value ([7]; standard disinfection process, 1.0% Na-Dichloroisocyanurate) of the same compound?
Answer: The value was “still infected”.

Question: What about the “BFB by sweat box assay” value ([7]; vacuum infiltration, 0.2% solution, sinking fraction, 4200 seeds tested) of the same compound?
Answer: Its value is “negative”.

Question: What about the Germination % ([8]; Na-Dichloroisocyanurate 0.4%, standard disinfection) of the same compound?
Answer: The Germination % was 96%.

Question: And the Germination % ([8]; Na-Dichloroisocyanurate 0.4%, vacuum infiltration)?
Answer: The Germination % was 100%.

Question: What about the Germination % ([8]; Na-Dichloroisocyanurate 0.75%, vacuum infiltration) of the same compound?
Answer: The Germination % was 100%.

Question: What about the Germination % ([8]; Na-Dichloroisocyanurate 1.5%, vacuum infiltration) of the same compound?
Answer: Its Germination % is 100%.

Question: And the Germination % ([8]; Na-Dichloroisocyanurate 2.0%, vacuum infiltration)?
Answer: Its Germination % is 100%.

Question: And the “Remarks (seed health)” value ([9]; floating fraction (5%))?
Answer: Its value is “Contami-”.

Question: And the “Seed health lab results, Positive/total replicates” value ([9]; floating fraction (5%))?
Answer: The value was 9/10.

Question: What about the “Seed health lab results, ELISA average count” value ([9]; floating fraction (5%)) of the same compound?
Answer: Its value is 0.543.

Question: What about the “Remarks (seed health)” value ([9]; sinking fraction (95%)) of the same compound?
Answer: Its value is “Clean”.

Question: What about the “Seed health lab results, Positive/total replicates” value ([9]; sinking fraction (95%)) of the same compound?
Answer: Its value is 0/30.

Question: What about the “Seed health lab results, ELISA average count” value ([9]; sinking fraction (95%)) of the same compound?
Answer: Its value is 0.081.

Question: And the “BFB infection” value ([10]; disinfected twice by standard protocol, 1% and 2%, 10 min)?
Answer: The value was “still heavily infested”.

Question: What about the “BFB by sweat-box assay” value ([10]; vacuum infiltration, 0.5% solution, floating fraction, 10,000 seeds) of the same compound?
Answer: Its value is “positive”.

Question: And the “BFB health test (PCR, seedling grow-out, sweat box)” value ([10]; vacuum infiltration, 0.5% solution, sinking fraction, 40,000 seeds tested)?
Answer: Its value is “None of the seeds was found infected”.
